The values below are quoted from earlier work in US20200352795A1, “WETNESS INDICATOR WITH HARDENERS” (SAVARE' I.C. S.r.l., priority 2018, published 2020).

In general, pKa refers to the negative logarithm of the acid dissociation constant.

SMILES strings stand for the structures.

For the data set the following is noted: for pKa: Table 1.

For `O=C1OC2(c3cc(Br)c(O)c(Br)c3Oc3c2cc(Br)c(O)c3Br)c2c(Cl)c(Cl)c(Cl)c(Cl)c21` [Acid Phloxine B], the “pKa of pH-indicator colorant” value is approximately 2.9 and the pKa is 2.9.
`O=S(=O)(O)c1ccc(N=C2C=CC(=C(c3ccc(Nc4ccc(S(=O)(=O)O)cc4)cc3)c3ccc(Nc4ccc(S(=O)(=O)O)cc4)cc3)C=C2)cc1` [Aniline Blue (also known as Methyl Blue), Aniline Blue]: the pKa is 11.7.
In the case of `Cc1c(C2(c3cc(Br)c(O)c(Br)c3C)OS(=O)(=O)c3ccccc32)cc(Br)c(O)c1Br` [Bromocresol Green Free Acid], the pKa was 4.8.
Consider `Cc1cc(C2(c3cc(C)c(O)c(Br)c3)OS(=O)(=O)c3ccccc32)cc(Br)c1O` [Bromocresol Purple Free Acid], for which the “pKa of pH-indicator colorant” value is listed as 6.3.
`O=S1(=O)OC(c2cc(Br)c(O)c(Br)c2)(c2cc(Br)c(O)c(Br)c2)c2ccccc21` [Bromophenol Blue Free Acid]: the “pKa of pH-indicator colorant” value is on record as approximately 4.0.
